Laboratory results from patent publication US8492347B2, “Peptide for induction of immune tolerance as treatment for systemic lupus erythematosus” (The Regents of the University of California, priority 2007, dated 2013).
Where no end group is shown, it is not given here. [ ]: non-standard residue; d: D form.

Columns and labels:
[1] = tested on: naïve BWF1 CD4+ CD25− helper T cells cultured with naïve BWF1 B cells; experiment: anti-DNA antibody-forming cells in cultures of BWF1 B cells plus CD4+ CD25− helper T cells after i.v. peptide; format: in vivo, mice
Description: FIG. 1 provides a bar graph of data showing that the intravenous administration of either 500 or 250 ug of D-pCons is effective in suppressing anti-DNA antibody production by naïve BWF1 CD4+ CD25− helper T cells cultured with naïve BWF1 B cells. The numbers of splenic B cells making IgG anti-DNA dropped from 65 per 10^6 B cells in the untreated group to 30-32 in the tolerized groups.
FIG. 2 provides a bar graph of data from studies of L-pCons and D-pCons. Both D-pCons and L-pCons peptides were given once i.v. and spleen cells harvested 2 weeks later. Note that for L-pCons, the combination of naïve B cells plus CD4+ CD25− helper T cells gave a mean of 160 anti-DNA antibody-forming cells per 10^6 B cells (column 3), whereas addition of CD4+ CD25+ Treg from tolerized mice to the culture reduced the AFC to 25 per 10^6 B cells (column 4). These differences were statistically significant, p<0.001. Note also that the suppression was abrogated by incubation of the cultures with antibodies to GITR (column 6) or TGFb-LAP (column 7), but not by CTLA4-Ig (column 8).
For tolerance induction, ten-to-twelve week-old BWF1 mice received a single i.v. dose of 1 mg of one of the peptides, dissolved in saline, as reported previously (see, e.g. Singh et al., J Clin Invest 1995; 96:2990-6). Controls in selected experiments were either treated with saline or control peptides.
Assays were performed to measure anti-DNA Ab according to art accepted protocols (see, e.g. Singh et al., J Clin Invest 1995; 96:2990-6; Hahn et al., Arthritis Rheum 2001; 44:432-41; La Cava et al., J Immunol 2004; 173:3542-8; Hahn et al., Ann NY Acad Sci 2005; 1051:433-41; Hahn et al., J Immunol 2005; 175:7728-37; Singh et al., J Immunol 2007; 178:7649-57). […] After 5 days, culture supernatants were collected, concentrated, and analyzed for anti-DNA IgG by ELISA. […]

BWF1 mice = experiment: proteinuria (Azostix) in mice fed peptide; format: in vivo; conditions: 250 ug fed 5 days out of each 30 from age 10 weeks; for proteinuria vs saline: at 34 weeks
Description: Anti-DNA antibodies were measured by ELISA and proteinuria by Azostix (see, e.g. Yang et al., J. I., 2003, 171: 2142-2153).
We also observed the clinical effects of feeding either D- or L-peptides at the low, medium and high doses of each. Because mRNA analysis of mesenteric lymph nodes provided evidence that high dose D-peptide would induce tolerance, we began new experiments to compare high dose (250 ug) feedings of D-peptide to the same dose of L-peptide. A control group was fed saline on the same schedule as the peptide feedings, which is daily for 5 days out of each 30 days. Each group contains 14 mice; treatment was begun at age 10 weeks. Observed effects on anti-DNA are as follows. […] Note that the saline control group is lower than the positive control anti-DNA, which is serum from BWF1 mice with heavy proteinuria and imminent death. Thus, the saline control has not reached the expected high level at this point but should do so in the next 2 months.
Observed effects on Proteinuria are as follows.

| Sequence | suppression of anti-DNA antibody production ([1]; 125 ug dose i.v.) | numbers of splenic B cells making IgG anti-DNA ([1]; 500 or 250 ug i.v. (tolerized groups), untreated group 65) | mean level of proteinuria (zero to 4+) (BWF1 mice; at 24 weeks of age) | proteinuria vs saline (BWF1 mice; listed as D-peptide) | anti-DNA antibody-forming cells (AFC) ([1]; peptide once i.v., spleen cells 2 weeks later, CD4+ CD25+ Treg from tolerized mice added to culture, 160 without Treg, p<0.001) [per 10^6 B cells] | proteinuria vs saline (BWF1 mice; listed as L-peptide) |
| --- | --- | --- | --- | --- | --- | --- |
| FIEWNKLRFRQGLEW ([dF][dI][dE][dW][dN][dK][dL][dR][dF][dR][dQ]G[dL][dE][dW]) [D-pCons] | not effective in inducing suppression | 30-32 per 10^6 B cells | no differences in mean level of proteinuria | lower in the D-peptide group (p=0.18) | – | – |
| FIEWNKLRFRQGLEW [L-pCons] | – | – | – | – | 25 | lower in the L-peptide group (p=0.01) |
